Our source for the pKa values is EP3725756A2, “COMPOSITIONS WITH IMPROVED UREASE-INHIBITING EFFECT COMPRISING AMINES, OR COLORANTS, AND AN ADDUCT OF THE THREE COMPOUNDS N-(N-BUTYL) THIOPHOSPHORIC ACID TRIAMIDE (NBPT), UREA, AND FORMALDEHYDE” (BASF SE, priority 2019, dated 2020).

Structures are written as SMILES.

This data set in a line: physchem. It is filed as physicochemical. Here is the method:
"Not dissociable" means that the pKa value (logarithmic measure of the acid dissociation constant) for the reaction alcohol (D) → deprotonated alcohol (D) + H^+ of the hydroxy group in the neutral aqueous phase is more than 9.9, more preferably more than 11, most preferably more than 12, particularly preferably more than 13, for example more than 14 as measured in de-ionized water at 25° C and atmospheric pressure.

With `CC(O)CO` (stereo not shown) [propane-1,2-diol], the pKa came out at 14.9.
